Tested on: STZ-induced hyperglycemic rats
Test: Anti-hyperglycemic effect in STZ-induced hyperglycemic rats (serum blood glucose level)
Assay type: in vivo, Sprague-Dawley (SD) rats
Procedure: For the purpose of the present invention, the dietary supplement prepared in accordance with Example 1 is named Composition 1. Composition 1 is an herbal supplement used for control of blood glucose level. The purpose of this study was to assess the anti-hyperglycemic effect of Composition 1 tablet in STZ-induced hyperglycemic rats.
Sprague-Dawley (SD) rats weighing 230˜270 g were used to establish the hyperglycemic rat model. Animals were fasted for 18 hours before receiving a single intraperitoneal injection of 2% STZ at a dose of 40 mg/kg BW (2.0 ml/kg). Six SD rats were selected as the Blank Control Group and injected intraperitoneally with citric acid buffer at a dose of 2.0 ml/kg BW. All rats had free access to food and water after the injection. Blood samples were collected from rats' posterior orbits veins at 72 hours after the injection for determination of the blood glucose level. Successful establishment of hyperglycemic rat model was defined as a non-fasting venous blood glucose level≧13.8 mmol/L. […]
The clinical dose of Metformin for human is 1˜1.5 g/day, which is about 0.025 g/kg body weight/day for an adult. The administration dose of Metformin for rat was calculated to be 0.25 g/kg body weight/day, 10 times of human clinical dose. […]

`CN(C)C(=N)N=C(N)N` [Metformin] was tested, and the “blood glucose levels compared to the Model Control Group” value (Metformin Control Group 0.25 g/kg/day, 3rd and 4th weeks after the beginning of administration, p<0.05) was “lower” and the “decrease of end-point blood glucose level compared to level prior to the treatment” value (Metformin Control Group, 0.25 g/kg/day i.g., after the 4-week treatment) was 59%.

Source: patent US20110104290A1, “COMPOSITIONS FOR REDUCING BLOOD GLUCOSE LEVEL AND USES THEREOF” (priority 2008, published 2011)
